Where two headings read alike, the source gives them in different places.
Assays:
[1] = test system: foot-and-mouth disease virus (FMDV); settings: cited from earlier work
HCoV-229E-GFP [2] = assay: organism not typed; type: cell-based
SARS-CoV-2 = assay: microbe, parasite or virus in culture; type: cell-based; settings: for IC50: Severe acute respiratory syndrome coronavirus 2, Vero C1008
HCoV-229E-GFP [3] = type: cell-based
HCoV-229E-GFP [4] = test system: HCoV-229E-GFP
HCoV-229E-GFP [5] = type: cell-based; remark: listed apart in the source
[6] = Cell viability by MTT assay (cytotoxicity), Huh-7; settings: human, Huh-7 cells
SARS-CoV-2 (MAD-6) [7] = assay: microbe, parasite or virus in culture; type: cell-based; settings: Severe acute respiratory syndrome coronavirus 2, Caco-2
[8] = Cell viability by MTT assay (cytotoxicity), Caco-2; settings: human, Caco-2 cells
FMDV = settings: mouse, in vivo, 100 mg/kg; cited from earlier work
[9] = Cell viability by MTT assay (cytotoxicity), Vero-E6; settings: African green monkey, Vero-E6 cells
SARS-CoV-2 (MAD-6) [10] = assay: microbe, parasite or virus in culture; type: cell-based; settings: Severe acute respiratory syndrome coronavirus 2, Vero C1008

Structure (SMILES): O=C(O)c1cc(O)c(O)c(O)c1 [gallic acid]
- inhibition of FMDV production [1]: totally ineffective
- virus inhibition (HCoV-229E-GFP [2]): unable to produce virus inhibition
- SI (SARS-CoV-2): 6,2
- IC50 (SARS-CoV-2): 40.3 µM

Structure (SMILES): CCCOC(=O)c1cc(O)c(O)c(O)c1 [PG, propyl gallate]
- inhibition of FMDV production [1]: totally ineffective
- virus inhibition (HCoV-229E-GFP [2]): unable to produce virus inhibition

Structure (SMILES): CCCCCCCCCCCCOC(=O)c1cc(O)c(O)c(O)c1 [LG, Lauryl Gallate]
- IC50 (HCoV-229E-GFP [3]): 2.05 µM
- direct virucidal effect on the virus particle (HCoV-229E-GFP [4]): No direct toxicity
- decrease in the HCoV-229E-GFP yield (HCoV-229E-GFP [5]): more than 2 log.u.
- CC50 at 24 h [6]: 83.1 µM
- IC50 (SARS-CoV-2 (MAD-6) [7]): 2.98 µM
- CC50 at 24 h [8]: 97.1 µM
- reduction of the virus productivity [1]: up to 2 log.u.
- direct virucidal effect on the virus particle (SARS-CoV-2 MAD-6): No direct toxicity
- clinical signs (FMDV): reduction
- mortality (FMDV): reduction
- viral RNA copies in different tissues (FMDV): reduction
- reduction of the HCoV-229E-GFP infection (HCoV-229E-GFP [2]): up to 2 log.u.
- CC50 at 24 h [9]: 90.1 µM
- SI (SARS-CoV-2): 70,9
- IC50 (SARS-CoV-2): 1.22 µM
- IC50 (SARS-CoV-2 (MAD-6) [10]): 1.28 µM

Structure (SMILES): CCCCCCCCOC(=O)c1cc(O)c(O)c(O)c1 [OG, octyl gallate]
- inhibition of FMDV production [1]: totally ineffective
- reduction of the HCoV-229E-GFP infection (HCoV-229E-GFP [2]): up to 2 log.u.
- IC50 (HCoV-229E-GFP [2]; Huh-7): 6.21 µM

Structure (SMILES): O=C(O[C@@H]1Cc2c(O)cc(O)cc2O[C@@H]1c1ccc(O)c(O)c1)c1cc(O)c(O)c(O)c1 [epicatechin gallate]
- SI (SARS-CoV-2): 5,8
- IC50 (SARS-CoV-2): 50.1 µM

Source: patent EP4104829A1 (priority 2021, dated 2022)
